Biological target: T1, human FPRL1 (Homo sapiens, UniProt P25090)
T1 construct: expressed in transfected cells; host or cells: HEK293 (JCRB9068, NIBIO), transient transfection with pCMV-script vectors using Lipofectamine 2000
T1 sequence (P25090 1-351): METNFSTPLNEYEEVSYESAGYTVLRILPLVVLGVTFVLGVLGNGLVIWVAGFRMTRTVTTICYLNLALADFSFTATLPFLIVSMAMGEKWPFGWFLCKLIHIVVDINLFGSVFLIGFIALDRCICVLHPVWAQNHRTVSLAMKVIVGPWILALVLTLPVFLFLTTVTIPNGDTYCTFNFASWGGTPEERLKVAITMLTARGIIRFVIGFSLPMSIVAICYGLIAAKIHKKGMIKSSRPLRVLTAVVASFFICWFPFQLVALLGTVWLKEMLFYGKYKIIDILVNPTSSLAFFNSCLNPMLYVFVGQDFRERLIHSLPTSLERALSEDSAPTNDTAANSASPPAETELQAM
Test: Measurement test of agonist activity on human FPRL1 (test of calcium mobilization in cell, HEK293 with human FPRL1 and Gα15 expression vectors)
Type: cell-based
Conditions: calcium mobilization in HEK293 cells with human FPRL1 and Gα15 expression vectors
Description: Measurement Test of Agonist Activity on Human FPRL1
(1-1) Construction of Human FPRL1 Expression Vector
Human FPRL (SEQ ID NO: 3) was amplified in a PCR reaction from cDNA derived from a monocytic leukemia cell line THP-1 (TIB-202, ATCC) as a template using a forward primer shown in SEQ ID NO: 1, a reverse primer shown in SEQ ID NO: 2, and KOD-plus-ver. 2 (KOD-211, TOYOBO CO., LTD.). The amplified PCR product and pCMV-script vector (212220, STRATAGENE) were digested with Hind III (1060A, Takara Bio Inc.) and XhoI (1094A, Takara Bio Inc.), and the resultant digest was ligated with Ligation high ver. 2 (LGK-201, TOYOBO CO., LTD.). The ligation product was transformed into DH5α (DNA-901, TOYOBO CO., LTD.), cultured on a 100 μg/mL kanamycin-containing LB medium, and purified with HiSpeed Plasmid Maxi Kit (12662, QIAGEN).
(1-2) Construction of Human Gα15 Expression Vector
Human Gα15 (SEQ ID NO: 6) was amplified in a PCR reaction from cDNA derived from a myeloid leukemia cell line HL-60 (CCL-240, ATCC) as a template using a forward primer shown in SEQ ID NO: 4, a reverse primer shown in SEQ ID NO: 5, and KOD-plus-ver. 2. The amplified PCR product and pCMV-script vector were digested with Hind III and XhoI, and the resultant digest was ligated with Ligation high ver. 2. The ligation product was transformed into DH5α, cultured on a 100 μg/mL kanamycin-containing LB medium, and purified with HiSpeed Plasmid Maxi Kit.
(2-1) Method for Culturing and Subculturing HEK293
HEK293 (JCRB9068, NIBIO) was cultured in an incubator at 5% CO2 and 37° C. using DMEM (11885-092, GIBCO) containing 10% FBS and 1× Penicillin-Streptomycin (15140-122, GIBCO). Subculture was carried out as followings: The cells that reached 80 to 90% confluency were washed with PBS(−), separated using 0.25% Trypsin-EDTA (25200-072, GIBCO), centrifuged, re-suspended in a fresh medium, and then seeded in Collagen Type 1 Coated dish (4020-010, IWAKI) at a split ratio of 1:8 (cultured for 3 days).
(2-2) Introduction of Human FPRL1 and Gα15 Expression Vectors
HEK293 that reached 80 to 90% confluency was washed with PBS(−), separated using 0.25% Trypsin-EDTA, centrifuged, and re-suspended in a fresh medium excluding 1× Penicillin-Streptomycin. The cells were inoculated in a Collagen Type 1 coated 6-well plate (4810-010, IWAKI) to 5×10^5 cells/2.5 mL/well and cultured overnight. On the next day, human FPRL1 and Gα15 expression vectors were introduced using Lipofectamine 2000 transfection reagent (11668-019, Life technologies). First, the human FPRL1 and Gα15 expression vectors were diluted with Opti-MEM I Reduced Serum Medium (31985-070, GIBCO) to 2 μg/250 μL/well and Lipofectamine 2000 transfection reagent was diluted with Opti-MEM I Reduced Serum Medium to be 4 μL/250 μL/well. The vectors and reagent were softly diffused, and incubated at room temperature for 5 minutes. The vector solution was mixed with Lipofectamine 2000 transfection reagent in equal amounts. In order to form a composite of the vectors and Lipofectamine 2000 transfection reagent, the mixture was incubated at room temperature for 20 minutes, and added at 500 μL/well to the medium of inoculated cells. The treated cells were cultured for 24 hours, inoculated in Poly-D-Lysine coated 96-well plate (356640, BD Biosciences) at a cell density of 7×10^4 cells/100 μL/well, and cultured for another 24 hours. The resultant cells were used in a measurement test of calcium mobilization in the cells.
(3) Evaluation of Agonist Activity on Human FPRL1 (Test of Calcium Mobilization in Cell)
An appropriate amount of each test compound was first weighed, and dissolved to 10^−2 M by addition of dimethyl sulfoxide (DMSO). […]

SMILES	EC50 [nM]
COc1cc(F)c([C@@H]2CNC(=O)[C@H]2NC(=O)Nc2cccc(F)c2)c(F)c1 (relative stereo) [Example 7-8, (−)-1-[(3S*,4R*)-4-(2,6-difluoro-4-methoxyphenyl)-2-oxopyrrolidin-3-yl]-3-(3-fluorophenyl)urea]	0.95
COc1cc(F)c([C@@H]2CNC(=O)[C@H]2NC(=O)Nc2ccc(F)c(F)c2)c(F)c1 (relative stereo) [Example 7-9, (−)-1-[(3S*,4R*)-4-(2,6-difluoro-4-methoxyphenyl)-2-oxopyrrolidin-3-yl]-3-(3,4-difluorophenyl)urea]	0.16
CCc1ccc(NC(=O)N[C@@H]2C(=O)NC[C@H]2c2c(F)cc(OC)cc2F)cc1 (relative stereo) [Example 7-10, (−)-1-[(3S*,4R*)-4-(2,6-difluoro-4-methoxyphenyl)-2-oxopyrrolidin-3-yl]-3-(4-ethylphenyl)urea]	2.31
COc1cc(F)c([C@@H]2CNC(=O)[C@H]2NC(=O)Nc2cccc(C#N)c2)c(F)c1 (relative stereo) [Example 7-12, (−)-1-(3-cyanophenyl)-3-[(3S*,4R*)-4-(2,6-difluoro-4-methoxyphenyl)-2-oxopyrrolidin-3-yl]urea]	3.9
COc1cc(F)c([C@@H]2CNC(=O)[C@H]2NC(=O)Nc2ccc(Cl)s2)c(F)c1 (relative stereo) [Example 8-1, (−)-1-(5-Chlorothiophen-2-yl)-3-[(3S*,4R*)-4-(2,6-difluoro-4-methoxyphenyl)-2-oxopyrrolidin-3-yl]urea]	0.29
COc1cnc([C@@H]2CNC(=O)[C@H]2NC(=O)Nc2ccc(Cl)s2)c(F)c1 (relative stereo) [Example 8-2, (−)-1-(5-chlorothiophen-2-yl)-3-[(3S*,4R*)-4-(3-fluoro-5-methoxypyridin-2-yl)-2-oxopyrrolidin-3-yl]urea]	1.6
COc1ccc([C@@H]2CN(C(C)(C)CO)C(=O)[C@H]2NC(=O)Nc2ccc(F)cc2)cc1 (relative stereo) [Example 12-4, (−)-1-(4-fluorophenyl)-3-[(3S*,4R*)-1-(1-hydroxy-2-methylpropan-2-yl)-4-(4-methoxyphenyl)-2-oxopyrrolidin-3-yl]urea]	0.05
COc1cc(F)c([C@@H]2CN(CC(=O)O)C(=O)[C@H]2NC(=O)Nc2ccc(F)cc2)c(F)c1 (relative stereo) [Example 16-2, (−)-2-{(3S*,4R*)-4-(2,6-difluoro-4-methoxyphenyl)-3-[3-(4-fluorophenyl)ureido]-2-oxopyrrolidin-1-yl}acetic acid]	0.49
O=C(O)CN1C[C@@H](c2cc3c(cc2F)OCC3)[C@H](NC(=O)Nc2ccc(F)cc2)C1=O (relative stereo) [Example 16-3, (−)-2-{(3S*,4R*)-4-(6-fluoro-2,3-dihydrobenzofuran-5-yl)-3-[3-(4-fluorophenyl)ureido]-2-oxopyrrolidin-1-yl}acetic acid]	0.75
CNC(=O)CN1C[C@@H](c2ccc(OC)cc2)[C@H](NC(=O)Nc2ccc(F)cc2)C1=O (relative stereo) [Example 17-1, (−)-2-{(3S*,4R*)-3-[3-(4-Fluorophenyl)ureido]-4-(4-methoxyphenyl)-2-oxopyrrolidin-1-yl}-N-methylacetamide]	0.11
CNC(=O)CN1C[C@@H](c2c(F)cc(OC)cc2F)[C@H](NC(=O)Nc2ccc(F)cc2)C1=O (relative stereo) [Example 17-2, (−)-2-{(3S*,4R*)-4-(2,6-difluoro-4-methoxyphenyl)-3-[3-(4-fluorophenyl)ureido]-2-oxopyrrolidin-1-yl}-N-methylacetamide]	0.07
NC(=O)CN1C[C@@H](c2cc3c(cc2F)OCC3)[C@H](NC(=O)Nc2ccc(F)cc2)C1=O (relative stereo) [Example 17-3, (−)-2-{(3S*,4R*)-4-(6-fluoro-2,3-dihydrobenzofuran-5-yl)-3-[3-(4-fluorophenyl)ureido]-2-oxopyrrolidin-1-yl}acetamide]	0.29
CC(C)(C(=O)O)N1C[C@@H](c2cc3c(cc2F)OCC3)[C@H](NC(=O)Nc2ccc(F)cc2)C1=O (relative stereo) [Example 22-2, (−)-2-{(3S*,4R*)-4-(6-Fluoro-2,3-dihydrobenzofuran-5-yl)-3-[3-(4-fluorophenyl)ureido]-2-oxopyrrolidin-1-yl}-2-methylpropanoic acid]	0.38
CNC(=O)C(C)(C)N1C[C@@H](c2ccc(OC)cc2)[C@H](NC(=O)Nc2ccc(F)cc2)C1=O (relative stereo) [Example 23-1, (−)-2-{(3S*,4R*)-3-[3-(4-Fluorophenyl)ureido]-4-(4-methoxyphenyl)-2-oxopyrrolidin-1-yl}-N,2-dimethylpropionamide]	0.09
COc1cc(F)c([C@@H]2CN(C)C(=O)[C@H]2NC(=O)Nc2ccc(F)cc2)c(F)c1 (relative stereo) [Example 24-1, (−)-1-[(3S*,4R*)-4-(2,6-Difluoro-4-methoxyphenyl)-1-methyl-2-oxopyrrolidin-3-yl]-3-(4-fluorophenyl)urea]	0.09
COc1cc(F)c([C@@H]2CN(C)C(=O)[C@H]2NC(=O)Nc2ccc(C#N)cc2)c(F)c1 (relative stereo) [Example 24-3]	1.1
COc1cc(F)c([C@@H]2CN(C)C(=O)[C@H]2NC(=O)Nc2ccc(Cl)nc2)c(F)c1 (relative stereo) [Example 24-4, (−)-1-(6-chloropyridin-3-yl)-3-[(3S*,4R*)-4-(2,6-difluoro-4-methoxyphenyl)-1-methyl-2-oxopyrrolidin-3-yl]urea]	0.81
COc1cc(F)c([C@@H]2CN(C)C(=O)[C@H]2NC(=O)Nc2cc3ccccc3s2)c(F)c1 (relative stereo) [Example 24-5, (−)-1-(benzo[b]thiophen-2-yl)-3-[(3S*,4R*)-4-(2,6-difluoro-4-methoxyphenyl)-1-methyl-2-oxopyrrolidin-3-yl]urea]	1.6
COc1cc(F)c([C@@H]2CN(CCO)C(=O)[C@H]2NC(=O)Nc2ccccc2)c(F)c1 (relative stereo) [Example 24-6, (−)-1-[(3S*,4R*)-4-(2,6-difluoro-4-methoxyphenyl)-1-(2-hydroxyethyl)-2-oxopyrrolidin-3-yl]-3-phenylurea]	0.4
COc1cc(F)c([C@@H]2CN(CCO)C(=O)[C@H]2NC(=O)Nc2ccc(C)cc2)c(F)c1 (relative stereo) [Example 24-7, (−)-1-[(3S*,4R*)-4-(2,6-difluoro-4-methoxyphenyl)-1-(2-hydroxyethyl)-2-oxopyrrolidin-3-yl]-3-(p-tolyl)urea]	0.69
COc1cc(F)c([C@@H]2CN(CCO)C(=O)[C@H]2NC(=O)Nc2ccc(C#N)cc2)c(F)c1 (relative stereo) [Example 24-8, (−)-1-(4-cyanophenyl)-3-[(3S*,4R*)-4-(2,6-difluoro-4-methoxyphenyl)-1-(2-hydroxyethyl)-2-oxopyrrolidin-3-yl]urea]	0.39
